Results: patent US12319655B2, “RAF kinase inhibitors and methods of use thereof” (Deciphera Pharmaceuticals, LLC, priority 2021, dated 2025)

Tests used:
Format in all cases: cell-based
Miapaca-2 cells [1] = assay: MiaPaca-2 Combination Cell proliferation Assay (1) with cobimetinib; conditions: MiaPaca-2 cell proliferation, read-out: MiaPaca-2 Combo (1) IC50
Miapaca-2 cells [2] = assay: MiaPaca-2 Combination Cell Proliferation Assay (2) with cobimetinib; conditions: MiaPaca-2 cell proliferation, read-out: MiaPaca-2 Combo (2) IC50
Experimental: MiaPaca-2 Combination Cell Proliferation Assay (2)
Miapaca-2 cells (catalog #CRL-1420) are obtained from the American Type Culture Collect (ATCC, Manassas, VA). Briefly, cells were grown in DMEM supplemented with 10% characterized fetal bovine serum (Invitrogen, Carlsbad, CA), 2.5% New Zealand sourced horse serum and 1% Penicillin/Streptomycin/L-Glutamine at 37° C., 5% CO2, and 95% humidity. Cells are expanded until reaching 70-95% confluency at which point they are subcultured or harvested for assay use. Using the Beckman Coulter Echo 650, a threefold, 8-point serial dilution of compound was spotted column wise into a 384 well black, clear bottom, tissue culture treated plate. Likewise, a threefold, 8-point serial dilution of cobimetinib was spotted row wise into the 384 well black, clear bottom plate containing compound. DMSO concentration was constant across all wells at 0.4%. Seven hundred fifty cells are added per well in 50 μL complete growth medium in each 384-well plate. Plates are incubated for 67-72 hours at 37° C., 5% CO2, and 95% humidity. At the end of the incubation, 10 μL of a 440 μM solution of resazurin (Sigma, St. Louis, MO) in PBS is added to each well of the plate and plates are incubated for an additional 4-6 hours at 37° C., 5% CO2, and 95% humidity. Plates are read on a Synergy2 or equivalent reader (Biotek, Winooski VT) using an excitation of 540 nm and an emission of 600 nm. Drug synergy was assessed via BLISS analysis in the Combenefit software (Cancer Research UK Cambridge Institute, Cambridge, UK). Data is analyzed using Prism software (Graphpad, San Diego, CA) to calculate IC50 values. Shifts in test compound IC50 values are reported from top-constrained combination therapy curves.

WM3629 cells = assay: WM3629 Cell Proliferation Assay (2)
Experimental: WM3629 Cell Proliferation Assay (2)
WM3629 cells (#WM3629-01-0001) are obtained from Rockland Immunochemicals Inc (Gilbertsville, PA). Briefly, cells were grown in MCDB 153 medium (Sigma, #M7403, St. Louis, MO) supplemented with 20% Leibovitz's L-15 (ThermoFisher #11415-064, Waltham, MA), 2% heat inactivated fetal bovine serum (ThermoFisher, #A3840001, Waltham, MA), 5 μg/mL Insulin (Bovine Pancreas) (Sigma, #I0516, St. Louis, MO), 1.68 mM Calcium Chloride (Sigma, #C-34006, St. Louis, MO) and 1% Penicillin/Streptomycin/L-Glutamine (ThermoFisher #10378016, Waltham, MA) at 37° C., 5% CO2, and 95% humidity. Cells are expanded until reaching 70-95% confluency at which point they are sub-cultured or harvested for assay use. Using the Beckman Coulter Echo 650, a serial dilution of test compound is dispensed into a 384-well black clear bottom plate in triplicate. One thousand one hundred twenty-five cells are added per well in 50 μL complete growth medium in the 384-well plate. Plates are incubated for 67-72 hours at 37° C., 5% CO2, and 95% humidity. At the end of the incubation, 10 μL of a 440 μM solution of resazurin (Sigma, #199303, St. Louis, MO) in PBS is added to each well of the plate and plates are incubated for an additional 3-6 hours at 37° C., 5% CO2, and 95% humidity. Plates are read on a Synergy2 or equivalent reader (Biotek, Winooski VT) using an excitation of 540 nm and an emission of 600 nm. Data is analyzed using Prism software (GraphPad, San Diego, CA) to calculate IC50 values.

| SMILES | IC50 (Miapaca-2 cells [1]) [nM] | IC50 (Miapaca-2 cells [2]) [nM] | IC50 (WM3629 cells) [nM] |
| --- | --- | --- | --- |
| CNC(=O)c1cc(-c2cncc(-c3cc(NC(=O)c4ccnc(C(C)C)c4)ccc3C)c2)ncn1 [Example 446] |  |  | ≤ 100 |
| Cc1ncc(NC(=O)c2ccnc(C(C)(F)F)c2)cc1-c1ccnc(-c2ccnc(NC(=O)C3CC3)c2)c1 [Example 466] |  |  | ≤ 100 |
| CNC(=O)c1cc(-c2cc(-c3cc(NC(=O)c4ccnc(C(C)(C)F)c4)ccc3C)c(F)cn2)ccn1 [Example 469] |  |  | ≤ 100 |
| CNC(=O)c1cc(-c2cc(-c3cc(NC(=O)c4ccnc(C(C)(C)F)c4)ccc3C)cc(C)n2)ccn1 [Example 470] |  |  | ≤ 100 |
| CNC(=O)c1cc(-c2cc(-c3cc(NC(=O)c4ccnc(C(C)(C)F)c4)ccc3C)cnn2)ccn1 [Example 473] |  |  | ≤ 100 |
| CNC(=O)c1cc(-c2cc(-c3cc(NC(=O)c4ccnc(C(C)(C)F)c4)ccc3C)ncn2)ccn1 [Example 474] |  |  | ≤ 100 |
| CNC(=O)c1cc(-c2cc(-c3cc(NC(=O)c4cnnc(C(F)(F)F)c4)ccc3C)ccn2)ccn1 [Example 477] |  |  | ≤ 100 |
| CNC(=O)c1cc(-c2cc(-c3cc(NC(=O)c4ccnc(C(C)(C)F)c4)cc(F)c3C)ccn2)ccn1 [Example 480] |  |  | ≤ 100 |
| CNC(=O)c1cc(-c2cc(-c3cc(NC(=O)c4ccnc(C(C)(C)F)c4)ccn3)ccn2)ccn1 [Example 481] |  |  | 1000 to 10000 |
| Cc1cc(-c2cc(NC(=O)c3ccnc(C(C)(C)F)c3)ccc2C)cc(-c2ccnc(C#N)c2)n1 [Example 483] |  |  | ≤ 100 |

Continued, in another order:

| IC50 (Miapaca-2 cells [1]) [nM] | IC50 (Miapaca-2 cells [2]) [nM] | SMILES | IC50 (WM3629 cells) [nM] |
| --- | --- | --- | --- |
| 100 to 500 |  | CNC(=O)c1cc(-c2cncc(-c3cc(NC(=O)c4ccnc(C(C)(C)F)c4)ccc3C)c2)ccn1 [Example 413] |  |
| 100 to 500 |  | COc1ccc(NC(=O)c2ccnc(C(C)(C)C#N)c2)cc1-c1cccc(-c2cc(NC(=O)C3CC3)ncn2)c1 [Example 438] |  |
|  | 500 to 1000 | CNC(=O)c1cc(-c2cncc(-c3cc(NC(=O)c4ccnc(C(C)(F)F)c4)ccc3C)c2)ccn1 [Example 440] |  |
|  | 100 to 500 | CNC(=O)c1cc(-c2cc(-c3cc(NC(=O)c4ccnc(C(C)(F)F)c4)ccc3C)ccn2)ccn1 [Example 441] |  |
|  | 100 to 500 | CNC(=O)c1cc(-c2cc(-c3cc(NC(=O)c4ccnc(C(C)C)c4)ccc3C)ccn2)ccn1 [Example 443] | ≤ 100 |
|  | 100 to 500 | CNC(=O)c1cc(-c2cncc(-c3cc(NC(=O)c4ccnc(C(C)C)c4)ccc3C)c2)ccn1 [Example 445] | ≤ 100 |
|  | 100 to 500 | Cc1ccc(NC(=O)c2ccnc(C(C)(C)F)c2)cc1-c1ccnc(-c2ccnc(C(N)=O)c2)c1 [Example 476] | ≤ 100 |
|  | 1000 to 10000 | CNC(=O)c1cc(-c2cc(-c3cc(NC(=O)c4ccnc(C(C)(C)F)c4)ccc3F)ccn2)ccn1 [Example 479] | ≤ 100 |
|  | 1000 to 10000 | CNC(=O)c1cc(-c2cc(-c3cc(NC(=O)c4ccnc(C(C)(C)F)c4)c(F)cc3F)ccn2)ccn1 [Example 482] | ≤ 100 |
|  | 500 to 1000 | Cc1cc(-c2cc(NC(=O)c3ccnc(C(C)(C)F)c3)ccc2C)cc(-c2ccnc(C(N)=O)c2)n1 [Example 484] | ≤ 100 |
